Measurements published in patent publication US20050261264A1, “Rare-earth ternary complex” (priority 2000, published 2005).

Key:
Format in all cases: physicochemical
[1] = Miscibility with solvents, visual evaluation at 5 wt %; set-up: key: ⊚: dissolves at room temperature; ◯: dissolves when heated for 5 minutes at 40° C.; Δ: dissolves under heating, but cooling precipitates crystals; X: does not dissolve; details: complex added at 5 wt %
Experimental: (§1) The miscibility of the rare earth complex with various media was evaluated as follows.
1) Miscibility with Solvents

[2] = Miscibility with a polymer matrix, visual evaluation; set-up: key to Miscibility, PMMA: ⊚: dissolves up to 30 wt %; ◯: dissolves up to 5 wt %; Δ: disperses up to 5 wt %, but there is turbidity; X: repelled at the polymer surface
Experimental: as §1
2) Miscibility with a Polymer Matrix
The rare earth complex serving as the sample was added in the concentrations listed with the evaluation criteria below relative to various media, and the miscibility was visually evaluated according to the following criteria. • ⊚: dissolves up to 30 wt % • ◯: dissolves up to 5 wt % • Δ: disperses up to 5 wt %, but there is turbidity • X: repelled at the polymer surface

[3] = Number of moles of bound water per mole of complex (TG-DTA); details: for Bound water (number of moles of bound water per mole of complex): Table 1, dried samples for the ternary complexes
Experimental: The number of moles of bound water per mole of complex was measured using a TG-DTA 2000 from MAC Science.
A 20 g quantity of Eu(PMS)3 was added to 100 mL of isopropanol, then 43 g ([…] the molar amount of the Eu(PMS)3) of triphenylphosphine oxide (hereinafter referred to as TPPO) was added, and the system was refluxed for 3 hours, and then gradually cooled. The resulting white powder was filtered off. The white powder thus obtained was washed with hot n-hexane, and recrystallized with water-methanol to obtain 44 g of Eu(PMS)3(TPPO)8 in the form of white acicular crystals (yield: 85%). The TG-DTA was measured for these crystals, and it was found from the weight reduction at 100° C. that the number of moles of bound water per mole of complex was 2.93. The IR, NMR, UV absorption characteristics, and elemental analysis results for the obtained Eu(PMS)3(TPPO)8(H2O)2.93 are given below.
Eu(PMS)3(TPPO)8(H2O)2.93 obtained by the above synthesis method was dried in vacuo for 3 hours at 140° C. and a reduced pressure of […]. TG-DTA measurement for the resulting white powder was carried out to obtain a weight reduction at 100° C. It was found from the obtained value that the number of moles of bound water per mole of complex was 0.18.

[4] = Luminescence quantum yield and luminescence intensity in solution; details: acetonitrile solution
Experimental: The intensity of luminescence and the luminescence quantum yield, the quotient of dividing the number of photons emitted from a sample by the number of photons absorbed into the sample, were measured with an SS-25 from JASCO Corporation.
The luminescence quantum yield of an acetonitrile solution of the Eu(PMS)3(TPPO)8 obtained in Example 1 (europium ion concentration: 0.05 mol/L) was measured (excitation wavelength: 465 nm, maximum luminescence wavelength: 612 nm, luminescence wavelength used in measurement: 612 nm).
The solutions prepared in Examples 12 to 14 and Comparative Examples 7 to 9 and Comparative Example B were measured for luminescence intensity at the respective maximum luminescence wavelengths.
The relative luminescence intensity of the solutions used in Examples 12 to 14 and Comparative Example B: (luminescence intensity in each of Examples 12 to 14)/(luminescence intensity in Comparative Example 7) was calculated, letting 1 be the luminescence intensity in Comparative Example 7 (solution of a rare earth complex in which the ligand Z was not coordinated).
Similarly, the relative luminescence intensity in Comparative Example 9: (luminescence intensity in Comparative Example 9)/(luminescence intensity in Comparative Example 8) was calculated, letting 1 be the luminescence intensity in Comparative Example 8 (solution of a known β-diketone-type of rare earth complex in which the ligand Z was not coordinated). The relative luminescence intensity of the solution used in Comparative Example B was 1.6 times.
The luminescence quantum yield of an acetone-d6 solution of the Nd(PMS)3(TPPO)8 obtained in Example 2 (neodymium ion concentration: 0.05 mol/L) was measured (excitation wavelength: 585 nm, maximum luminescence wavelength: 1064 nm, luminescence wavelength used in measurement: 1064 nm).
The solutions prepared in Examples 15 and 16 and Comparative Examples 10 were measured for luminescence intensity at the respective maximum luminescence wavelengths. The relative luminescence intensity in Examples 15 and 16: (luminescence intensity in each of Examples 15 and 16)/(luminescence intensity in Comparative Example 10) was calculated, letting 1 be the luminescence intensity in Comparative Example 10 (rare earth complex in which the ligand Z was not coordinated).

[5] = after drying in vacuo at 140° C.
[6] = before drying (crystals as obtained), weight reduction at 100° C.

| SMILES | Miscibility, Acetone [1] | Miscibility, Chloroform [1] | Miscibility, Toluene [1] | Miscibility, Water [1] | Miscibility, Epoxy resin [2] | Miscibility, Nafion [2] | Miscibility, PMMA [2] | Bound water (number of moles of bound water per mole of complex) [3] | Number of moles of bound water per mole of complex [3, 5] | Relative luminescence intensity ([4]; Eu 0.05 mol/L, relative to Eu(PMS)3 (Comparative Example 7) = 1) | Luminescence quantum yield ([4]; europium ion 0.05 mol/L, excitation 465 nm, luminescence 612 nm) [%] | Number of moles of bound water per mole of complex [3, 6] |
| --- | --- | --- | --- | --- | --- | --- | --- | --- | --- | --- | --- | --- |
| O=P(c1ccccc1)(c1ccccc1)c1ccccc1.O=P(c1ccccc1)(c1ccccc1)c1ccccc1.O=P(c1ccccc1)(c1ccccc1)c1ccccc1.O=P(c1ccccc1)(c1ccccc1)c1ccccc1.O=P(c1ccccc1)(c1ccccc1)c1ccccc1.O=P(c1ccccc1)(c1ccccc1)c1ccccc1.O=P(c1ccccc1)(c1ccccc1)c1ccccc1.O=P(c1ccccc1)(c1ccccc1)c1ccccc1.O=S(=O)([N-]S(=O)(=O)C(F)(F)C(F)(F)F)C(F)(F)C(F)(F)F.O=S(=O)([N-]S(=O)(=O)C(F)(F)C(F)(F)F)C(F)(F)C(F)(F)F.O=S(=O)([N-]S(=O)(=O)C(F)(F)C(F)(F)F)C(F)(F)C(F)(F)F.[Eu+3] [Eu(PES)3(TPPO)8] | ⊚ | ⊚ | ◯ | X | ◯ (dissolves up to 5 wt %) | ◯ (dissolves up to 5 wt %) | ◯ (dissolves up to 5 wt %) | 0.19 | 0.19 | – | – | – |
| O=S(=O)([N-]S(=O)(=O)C(F)(F)F)C(F)(F)F.O=S(=O)([N-]S(=O)(=O)C(F)(F)F)C(F)(F)F.O=S(=O)([N-]S(=O)(=O)C(F)(F)F)C(F)(F)F.[2H]C([2H])([2H])S(=O)C([2H])([2H])[2H].[2H]C([2H])([2H])S(=O)C([2H])([2H])[2H].[2H]C([2H])([2H])S(=O)C([2H])([2H])[2H].[2H]C([2H])([2H])S(=O)C([2H])([2H])[2H].[2H]C([2H])([2H])S(=O)C([2H])([2H])[2H].[2H]C([2H])([2H])S(=O)C([2H])([2H])[2H].[2H]C([2H])([2H])S(=O)C([2H])([2H])[2H].[2H]C([2H])([2H])S(=O)C([2H])([2H])[2H].[Eu+3] [Eu(PMS)3 (DMSO-d6)8, reference compound] | – | – | – | – | – | – | – | – | – | 1.6 | 44.0 | – |
| O=C(C=C([O-])C(F)(F)F)C(F)(F)F.O=C(C=C([O-])C(F)(F)F)C(F)(F)F.O=C(C=C([O-])C(F)(F)F)C(F)(F)F.O=P(c1ccccc1)(c1ccccc1)c1ccccc1.O=P(c1ccccc1)(c1ccccc1)c1ccccc1.[Nd+3] [Nd(HFA)3(TPPO)2, reference compound] | ⊚ | ◯ | ◯ | X | ◯ (dissolves up to 5 wt %) | Δ (disperses up to 5 wt %, but there is turbidity) | Δ (disperses up to 5 wt %, but there is turbidity) | 0.00 | – | – | – | – |
| O=C(C=C([O-])C(F)(F)F)C(F)(F)F.O=C(C=C([O-])C(F)(F)F)C(F)(F)F.O=C(C=C([O-])C(F)(F)F)C(F)(F)F.[Nd+3] [Nd(HFA)3, reference compound] | ⊚ | X | X | X | ◯ (dissolves up to 5 wt %) | Δ (disperses up to 5 wt %, but there is turbidity) | X | 2.00 | – | – | – | – |
| O=S(=O)([N-]S(=O)(=O)C(F)(F)F)C(F)(F)F.O=S(=O)([N-]S(=O)(=O)C(F)(F)F)C(F)(F)F.O=S(=O)([N-]S(=O)(=O)C(F)(F)F)C(F)(F)F.[Nd+3].c1cnc2c(c1)ccc1cccnc12.c1cnc2c(c1)ccc1cccnc12.c1cnc2c(c1)ccc1cccnc12.c1cnc2c(c1)ccc1cccnc12 [Nd(PMS)3(Phen)m] | ⊚ | Δ | Δ | X | ◯ (dissolves up to 5 wt %) | ◯ (dissolves up to 5 wt %) | ◯ (dissolves up to 5 wt %) | 0.00 | – | – | – | – |
| O=S(=O)([N-]S(=O)(=O)C(F)(F)F)C(F)(F)F.O=S(=O)([N-]S(=O)(=O)C(F)(F)F)C(F)(F)F.O=S(=O)([N-]S(=O)(=O)C(F)(F)F)C(F)(F)F.O=S(c1ccccc1)c1ccccc1.O=S(c1ccccc1)c1ccccc1.O=S(c1ccccc1)c1ccccc1.O=S(c1ccccc1)c1ccccc1.O=S(c1ccccc1)c1ccccc1.O=S(c1ccccc1)c1ccccc1.O=S(c1ccccc1)c1ccccc1.O=S(c1ccccc1)c1ccccc1.[Tb+3] [Tb(PMS)3(DPSO)8] | ⊚ | ◯ | ◯ | X | ◯ (dissolves up to 5 wt %) | ◯ (dissolves up to 5 wt %) | ◯ (dissolves up to 5 wt %) | 0.00 | – | – | – | – |
| O=P(c1ccccc1)(c1ccccc1)c1ccccc1.O=P(c1ccccc1)(c1ccccc1)c1ccccc1.O=P(c1ccccc1)(c1ccccc1)c1ccccc1.O=P(c1ccccc1)(c1ccccc1)c1ccccc1.O=P(c1ccccc1)(c1ccccc1)c1ccccc1.O=P(c1ccccc1)(c1ccccc1)c1ccccc1.O=P(c1ccccc1)(c1ccccc1)c1ccccc1.O=P(c1ccccc1)(c1ccccc1)c1ccccc1.O=S(=O)([N-]S(=O)(=O)C(F)(F)F)C(F)(F)F.O=S(=O)([N-]S(=O)(=O)C(F)(F)F)C(F)(F)F.O=S(=O)([N-]S(=O)(=O)C(F)(F)F)C(F)(F)F.[Tb+3] [Tb(PMS)3(TPPO)8] | ⊚ | ⊚ | ◯ | X | ◯ (dissolves up to 5 wt %) | ◯ (dissolves up to 5 wt %) | ◯ (dissolves up to 5 wt %) | 0.08 | 0.08 | – | – | 1.27 |
| O=P(c1ccccc1)(c1ccccc1)c1ccccc1.O=P(c1ccccc1)(c1ccccc1)c1ccccc1.O=P(c1ccccc1)(c1ccccc1)c1ccccc1.O=P(c1ccccc1)(c1ccccc1)c1ccccc1.O=P(c1ccccc1)(c1ccccc1)c1ccccc1.O=P(c1ccccc1)(c1ccccc1)c1ccccc1.O=P(c1ccccc1)(c1ccccc1)c1ccccc1.O=P(c1ccccc1)(c1ccccc1)c1ccccc1.O=S(=O)([N-]S(=O)(=O)C(F)(F)F)C(F)(F)F.O=S(=O)([N-]S(=O)(=O)C(F)(F)F)C(F)(F)F.O=S(=O)([N-]S(=O)(=O)C(F)(F)F)C(F)(F)F.[Yb+3] [Yb(PMS)3(TPPO)8] | ⊚ | ⊚ | ◯ | X | ◯ (dissolves up to 5 wt %) | ◯ (dissolves up to 5 wt %) | ◯ (dissolves up to 5 wt %) | 0.27 | 0.27 | – | – | 1.52 |
